This test addresses T1, human TLR8 (Homo sapiens, UniProt Q9NR97).
T1 construct: host or cells: HEK293-Blue-hTLR-8 (HEK293)
T1 sequence (Q9NR97 27-1041): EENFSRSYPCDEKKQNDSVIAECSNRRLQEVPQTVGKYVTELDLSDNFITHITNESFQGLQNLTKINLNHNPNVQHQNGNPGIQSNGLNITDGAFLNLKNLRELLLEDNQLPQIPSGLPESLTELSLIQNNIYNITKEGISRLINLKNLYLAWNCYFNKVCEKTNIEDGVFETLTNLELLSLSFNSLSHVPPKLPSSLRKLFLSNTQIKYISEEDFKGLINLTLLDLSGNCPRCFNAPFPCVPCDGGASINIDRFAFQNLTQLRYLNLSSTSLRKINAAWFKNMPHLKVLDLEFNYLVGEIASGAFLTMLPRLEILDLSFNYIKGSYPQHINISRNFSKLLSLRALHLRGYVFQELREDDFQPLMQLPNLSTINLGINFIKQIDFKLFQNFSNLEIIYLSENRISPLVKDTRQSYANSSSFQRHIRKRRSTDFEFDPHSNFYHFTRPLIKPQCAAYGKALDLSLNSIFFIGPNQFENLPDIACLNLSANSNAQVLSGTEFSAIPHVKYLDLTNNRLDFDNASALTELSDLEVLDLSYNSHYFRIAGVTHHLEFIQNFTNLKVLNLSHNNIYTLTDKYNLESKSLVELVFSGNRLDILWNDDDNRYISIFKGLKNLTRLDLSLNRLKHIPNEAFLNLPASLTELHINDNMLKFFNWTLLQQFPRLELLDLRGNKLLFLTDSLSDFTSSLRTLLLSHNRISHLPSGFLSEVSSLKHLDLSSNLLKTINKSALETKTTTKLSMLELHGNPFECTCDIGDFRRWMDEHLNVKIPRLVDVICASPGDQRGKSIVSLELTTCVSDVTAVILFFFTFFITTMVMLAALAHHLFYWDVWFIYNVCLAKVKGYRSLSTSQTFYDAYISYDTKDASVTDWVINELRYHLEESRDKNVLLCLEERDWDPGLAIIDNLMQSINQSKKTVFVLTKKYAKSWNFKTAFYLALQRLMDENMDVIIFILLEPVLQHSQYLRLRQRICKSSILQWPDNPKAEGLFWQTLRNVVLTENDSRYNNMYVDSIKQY
Put plainly: HEK293-Blue-hTLR-8 cells assay. The class given is cell-based. Particulars: HEK293-Blue-hTLR8 cells, R848 stimulation, 20 hrs, SEAP reporter; read-out: HEK/hTLR8 IC50. How it is done: The following tests were carried out in order to determine the activity of the compounds of formula (I) and (Ia) in HEK293-Blue-hTLR-7/8/9 cells assay.
HEK293-Blue-hTLR-8 cells assay:
A stable HEK293-Blue-hTLR-8 cell line was purchased from InvivoGen (Cat. #: hkb-htlr8, San Diego, Calif., USA). These cells were originally designed for studying the stimulation of human TLR8 by monitoring the activation of NE-κB. A SEAP (secreted embryonic alkaline phosphatase) reporter gene was placed under the control of the IFN-β minimal promoter fused to five NE-κB and AP-1-binding sites. The SEAP was induced by activating NE-κB and AP-1 via stimulating HEK-Blue hTLR8 cells with TLR8 ligands. Therefore the reporter expression was declined by TLR8 antagonist under the stimulation of a ligand, such as R848, for incubation of 20 hrs. The cell culture supernatant SEAP reporter activity was determined using QUANTI-Blue™ kit (Cat. #: rep-qbl, Invivogen, San Diego, Ca, USA) at a wavelength of 640 nm, a detection medium that turns purple or blue in the presence of alkaline phosphatase.
HEK293-Blue-hTLR8 cells were incubated at a density of 250,000-450,000 cells/mL in a volume of 170 μL in a 96-well plate in Dulbecco's Modified Eagle's medium (DMEM) containing 4.5 g/L glucose, 50 U/mL penicillin, […], […], 2 mM L-glutamine, 10% (v/v) heat-inactivated fetal bovine serum with addition of 20 μL test compound in a serial dilution in the presence of final DMSO at 1% and 10 μL of 60 uM R848 in above DMEM, perform incubation under 37° C. in a CO2 incubator for 20 hrs. Then 20 μL of the supernatant from each well was incubated with 180 μL Quanti-blue substrate solution at 37° C. for 2 hrs and the absorbance was read at 620˜655 nm using a spectrophotometer. The signalling pathway that TLR8 activation leads to downstream NE-κB activation has been widely accepted, and therefore similar reporter assay was modified for evaluating TLR8 antagonist.

As to `Cc1cc(C2CCN(C[C@H]3CN(c4ccc(C#N)c5ncccc45)C[C@@H](C)O3)CC2)cc(N)n1` [Example 43, 5-[(2S,6R)-2-[[4-(2-amino-6-methyl-4-pyridyl)-1-piperidyl]methyl]-6-methyl-morpholin-4-yl]quinoline-8-carbonitrile], the IC50 stood at 0.018 µM.

For `Cc1cc(N2CC3(CN(C[C@H]4CN(c5ccc(C#N)c6ncccc56)C[C@@H](C)O4)C3)C2)cc(C(C)O)n1` (stereo partly drawn) [Example 44, 5-[(2S,6R)-2-[[2-[2-(1-hydroxyethyl)-6-methyl-4-pyridyl]-2,6-diazaspiro[3.3]heptan-6-yl]methyl]-6-methyl-morpholin-4-yl]quinoline-8-carbonitrile], the IC50 was 0.03 µM.

As for `C[C@@H]1CN(c2ccc(C#N)c3ncccc23)C[C@H](CN2CCN(c3cc(N)nc(CO)c3)CC2)O1` [Example 45, 5-[(2S,6R)-2-[[4-[2-amino-6-(hydroxymethyl)-4-pyridyl]piperazin-1-yl]methyl]-6-methyl-morpholin-4-yl]quinoline-8-carbonitrile], the IC50 is 0.014 µM.

On to `CC(O)c1cc(N2CC3(CN(C[C@H]4CN(c5ccc(C#N)c6ncccc56)C[C@@H](C)O4)C3)C2)ccn1` (stereo partly drawn) [Example 46, 5-[(2S,6R)-2-[[2-[2-(1-hydroxyethyl)-4-pyridyl]-2,6-diazaspiro[3.3]heptan-6-yl]methyl]-6-methyl-morpholin-4-yl]quinoline-8-carbonitrile], for which the IC50 was 0.09 µM.

Regarding `C[C@@H]1CN(c2ccc(C#N)c3ncccc23)C[C@H](CN2CC3(C2)CN(c2ccnc(C(C)(C)O)c2)C3)O1` [Example 48, 5-[(2S,6R)-2[[2-[2-(1-hydroxy-1-methyl-ethyl)-4-pyridyl]-2,6-diazaspiro[3.3]heptan-6-yl]methyl]-6-methyl-morpholin-4-yl]quinoline-8-carbonitrile], the IC50 turned out to be 0.198 µM.

Consider `C[C@@H]1CN(c2ccc(C#N)c3ncccc23)C[C@H](CN2CC3(C2)CN(c2ccnc(C4CC4)c2)C3)O1` [Example 49, 5-[(2S,6R)-2[[2-(2-cyclopropyl-4-pyridyl)-2,6-diazaspiro[3.3]heptan-6-yl]methyl]-6-methyl-morpholin-4-yl]quinoline-8-carbonitrile], for which the IC50 is 0.02 µM.

For the compound `Cc1cc(N2CCN(C[C@H]3CN(c4ccc(C#N)c5ncccc45)C[C@@H](C)O3)CC2)cc(CO)n1` [Example 50], the IC50 came to 0.004 µM.

Turning to `C[C@@H]1CN(c2ccc(C#N)c3ncccc23)C[C@H](CN2CC3(C2)CN(c2ccnc(CO)c2)CCO3)O1` [Example 51], the IC50 turned out to be 0.003 µM.
